# Data taken from patent publication US20130217644A1, “Pharmaceutical Compositions of 2'-C-Methyl-Guanosine, 5'-[2[(3-Hydroxy-2,2-Dimethyl-1-Oxopropyl)Thio]Ethyl N-(Phenylmethyl)Phosphoramidate]” (IDENIX PHARMACEUTICALS, INC., priority 2012, published 2013).
# Experiments:
# [1] = Excipient compatibility: ethylene sulfide in 1:1 blends of compound 1 and excipient; format: physicochemical; conditions: 1:1 weight ratio of compound 1 and excipient, glass vials, gentle rotation 30 minutes, ambient conditions
# Protocol: Excipient compatibility of compound 1 with various excipients was determined. Samples of a 1:1 weight ratio of compound 1 and each excipient were blended in glass vials. The vials were subjected to gentle rotation to 30 minutes at ambient conditions. Samples were assayed for ethylene sulfide. Table 3 below presented the results for a selected group of the excipients evaluated: […]
# [2] = Open-label randomized cross-over single-dose pharmacokinetic study, tablet vs liquid filled capsule; format: in vivo, human; conditions: 50 mg single doses (tablet and capsule), healthy male subjects
# Protocol: A lot of tablets manufactured under cGMP conditions utilizing the composition of Example 3 (with appropriate adjustment of the weight % of PROSOLV SMCC 90 to account for the potency of Compound 1) were utilized in a pharmacokinetic study. The human clinical study was study performed in conformance with the Declaration of Helsinki and approved by a local Ethics Committee. An open-label randomized cross-over single-dose pharmacokinetic effect study was conducted in 12 healthy male subjects (ages 19-65) to compare the relative exposure of the tablet composition (50 mg compound 1) as compared to the liquid filled capsule composition (50 mg of compound 1) in the fasted state. In addition, an un-randomized third period followed the first two periods in which all 12 subjects were dosed with the tablet composition (50 mg compound 1) in the fed state, and 8 of the 12 subjects returned for a fourth period in which the 8 subjects were dosed with the liquid filled capsule composition (50 mg compound 1) in the fed state. Plasma samples for pharmacokinetic (PK) analysis were taken over a period of 120 h after dosing during each treatment period. Dosing days were at least 6 days apart (Period 1, days 1 to 6; Period 2, days 7 to 13, Period 3, days 14 to 20; and Period 4 followed the initial three periods). […] The pharmacokinetic samples were assayed for 2′-C-methyl-guanosine as well as compound 1.
# [3] = system: HCV replication; conditions: in-vitro assays, as described in U.S. Pat. No. 7,951,789; cited from earlier work
smiles,measurement,setting,value
"CC(C)(CO)C(=O)SCCOP(=O)(NCc1ccccc1)OC[C@H]1O[C@@H](n2cnc3c(=O)[nH]c(N)nc32)C(C)(O)C1O (stereo partly drawn) [Compound 1, 2′-C-methyl-guanosine, 5′-[2-[(3-hydroxy-2,2-dimethyl-1-oxopropyl)thio]ethyl N-(phenylmethyl)phosphoramidate]]",ppm Ethylene Sulfide Mean of 4 samples,[1],<9 ppm
same,serious adverse events,[2],No serious adverse events were reported
same,inhibition of HCV replication (in words),[3],ability to inhibit HCV replication
